A word on the GI50: it is the concentration that inhibits growth by half. Broadly, the TGI is the concentration giving total growth inhibition.

“And” between values parts separate entries of the source, which are not always exact repeats. Equal values may be shown once.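 Five concentrations, 48 hours, 96-well plates. GI50 = concentration required for 50% inhibition of growth. At the TGI there is no net growth.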 The source made the active and inactive calls. Cut-off read from the data, not from the text of the source: active = GI50 below about 0.43 µM; inactive = the rest. Where only a bound is given, the exact number is not on record here.

Among the test systems are IGROV1 ovarian; KM20L2 colon; NCI-H522 lung; OVCAR-3 ovarian; OVCAR-8 ovarian; SK-OV-3 ovarian; SR leukemia; TK-10 renal; DLD-1 colon; NCI/ADR-RES ovarian.
Holding throughout (assay): DTP human tumour cell line panel, 48 h

As to `C=C1C(=O)O[C@H]2C3OC3(C)CC/C=C(/C(=O)OC)[C@@H](OC(C)=O)[C@H](OC(=O)C3(C)OC3C)[C@H]12` (some centres not stated), the GI50 was 1.47 µM and 3.2 µM and 2.29 µg/mL with IGROV1 ovarian; 0.0891 µM and 0.122 µM in the experiment with NCI-H522 lung; 1.37 µM and 0.984 µg/mL in the experiment with OVCAR-3 ovarian; 2.13 µM and 699 nM and 0.351 µg/mL with OVCAR-8 ovarian; 9.25 µM and 26.5 µg/mL with SK-OV-3 ovarian; 0.248 µM in the experiment with SR leukemia. The GI50 in the experiment on TK-10 renal was 1.63 µM and 3.42 µM and 0.719 µg/mL. In addition, the TGI in the experiment on IGROV1 ovarian was 3.17 µM and 14.6 µM and 5.62 µg/mL; in the experiment on NCI-H522 lung it was 0.242 µM and 0.241 µM; in the experiment with OVCAR-3 ovarian it was 4.07 µM and 3.13 µg/mL; in the experiment on OVCAR-8 ovarian it was 2.98 µM and 3.01 µg/mL; with SK-OV-3 ovarian it was 18.9 µM and 48 µg/mL; in the experiment with SR leukemia, 0.664 µM and 1.27 µM. For the same compound, the TGI in the experiment with TK-10 renal is 3.24 µM and 9.88 µM and 2.43 µg/mL. The result with KM20L2 colon was inactive.
For `Cc1cc(=O)n2c(cc3cccccc32)n1`, the TGI in the experiment with IGROV1 ovarian, in the experiment on KM20L2 colon, with NCI-H522 lung, in the experiment with OVCAR-3 ovarian, in the experiment with OVCAR-8 ovarian and in the experiment on SR leukemia was above 100 µM each time. Besides, in the experiment on TK-10 renal, the TGI was above 100 µM.
With `CSC(=NC(=O)c1ccccc1)SCCSC(=NC(=O)c1ccccc1)SC`, the TGI with DLD-1 colon, with IGROV1 ovarian, in the experiment with KM20L2 colon, in the experiment on NCI-H522 lung, in the experiment with OVCAR-3 ovarian and in the experiment on OVCAR-8 ovarian was above 100 µM throughout. This compound also returned a TGI in the experiment on TK-10 renal above 100 µM.
Take `CCCCCCCCC1C(C)c2c([nH]c3ccccc23)C2C(=O)N(c3ccccc3)C(=O)C21` (configuration not stated): the concentration for total growth inhibition (TGI) with DLD-1 colon was 45.2 µM; in the experiment on IGROV1 ovarian, 36.2 µM; in the experiment with KM20L2 colon, 31.7 µM; with OVCAR-3 ovarian, 16.7 µM; with OVCAR-8 ovarian, 28.4 µM; with SK-OV-3 ovarian, 51.1 µM. The same compound returned a TGI in the experiment on TK-10 renal of 37.1 µM.
`C=C(C)C1CC=C(C)C(O)([C@@]2(O)C[C@H](C(=C)C)CC=C2C)C1` (some centres not stated): the TGI in the experiment with DLD-1 colon is above 100 µM; in the experiment on IGROV1 ovarian it was 53.4 µM; in the experiment on NCI-H522 lung, 41.5 µM; in the experiment with OVCAR-3 ovarian, 29.6 µM; in the experiment with OVCAR-8 ovarian, 35.5 µM; in the experiment on SK-OV-3 ovarian it was 64.1 µM. Also, the TGI in the experiment with SR leukemia was 58.1 µM; with TK-10 renal, above 100 µM.
With `COc1ccc(-c2nsc3c2NC(=O)CC3c2cccc(F)c2)cc1` (configuration not stated), the GI50 in the experiment with IGROV1 ovarian was 13.8 µM; with NCI-H522 lung, 3.39 µM; in the experiment with NCI/ADR-RES ovarian, 2.96 µM; in the experiment with OVCAR-3 ovarian, 3.32 µM; in the experiment on OVCAR-8 ovarian, 7.54 µM; in the experiment on SK-OV-3 ovarian it was 5.28 µM. For the same compound, the GI50 was 2.44 µM in the experiment with SR leukemia and 5.26 µM with TK-10 renal. In addition, the TGI is above 100 µM with IGROV1 ovarian; above 100 µM with NCI-H522 lung; 16.7 µM in the experiment on NCI/ADR-RES ovarian; 12.3 µM with OVCAR-3 ovarian; above 100 µM in the experiment on OVCAR-8 ovarian; above 100 µM in the experiment on SK-OV-3 ovarian. Also, the TGI in the experiment on SR leukemia and in the experiment with TK-10 renal was above 100 µM in each case.
On to `O=c1oc2ccc(I)cc2c(=O)n1-c1ccc(I)cc1F`, for which the GI50 is 0.406 µM in the experiment on IGROV1 ovarian; 0.327 µM in the experiment with NCI-H522 lung; 0.568 µM in the experiment with NCI/ADR-RES ovarian; 0.44 µM with OVCAR-3 ovarian; 0.704 µM with OVCAR-8 ovarian; 0.601 µM in the experiment on SK-OV-3 ovarian. Further, the GI50 in the experiment on SR leukemia is 0.61 µM; in the experiment on TK-10 renal, 1.42 µM. In addition, the concentration for total growth inhibition (TGI) in the experiment on IGROV1 ovarian was 20.8 µM; in the experiment with NCI-H522 lung it was 4.52 µM; in the experiment with NCI/ADR-RES ovarian, 5.69 µM; in the experiment on OVCAR-3 ovarian, 9.75 µM; in the experiment on OVCAR-8 ovarian, above 31.7 µM; with SK-OV-3 ovarian, 2.71 µM. The concentration for total growth inhibition (TGI) was above 38.2 µM in the experiment with SR leukemia and 11.8 µM in the experiment on TK-10 renal.
Take `CN(C)C[C@@H]1CCn2cc(c3ccccc32)C2=C(C(=O)NC2=O)c2cn(c3ccccc23)CCO1`: the GI50 is 1.3 µM in the experiment on IGROV1 ovarian; 0.763 µM in the experiment with NCI-H522 lung; 2.58 µM in the experiment with NCI/ADR-RES ovarian; 2.65 µM in the experiment on OVCAR-3 ovarian; 0.598 µM in the experiment with OVCAR-8 ovarian; 2.08 µM in the experiment on SK-OV-3 ovarian. The GI50 in the experiment on SR leukemia is 1.68 µM; in the experiment with TK-10 renal it was 2.22 µM. The TGI in the experiment with IGROV1 ovarian was 8.49 µM; with NCI-H522 lung, 7.31 µM; in the experiment on NCI/ADR-RES ovarian, above 10 µM; in the experiment with OVCAR-3 ovarian, above 10 µM; in the experiment on OVCAR-8 ovarian it was 8.33 µM; in the experiment with SK-OV-3 ovarian, above 10 µM. Also, the concentration for total growth inhibition (TGI) in the experiment with SR leukemia is 5.55 µM; with TK-10 renal it was above 10 µM.
`O=C(CS(=O)c1nc2ccccc2nc1-c1ccccc1)Nc1ccc(Cl)cc1` (configuration not stated): the GI50 in the experiment with IGROV1 ovarian was 31.2 µM; in the experiment with NCI-H522 lung, 18.6 µM; with NCI/ADR-RES ovarian it was 26.4 µM; with OVCAR-3 ovarian, 21.5 µM; in the experiment with OVCAR-8 ovarian, 38.3 µM; in the experiment on SK-OV-3 ovarian it was 51.3 µM. The GI50 was 18.7 µM with SR leukemia and 27.8 µM in the experiment with TK-10 renal. Also, the TGI is 99.5 µM in the experiment with IGROV1 ovarian; 60.1 µM in the experiment on NCI-H522 lung; 81.2 µM in the experiment on NCI/ADR-RES ovarian; 51.2 µM with OVCAR-3 ovarian; above 100 µM with OVCAR-8 ovarian; above 100 µM in the experiment on SK-OV-3 ovarian. For the same compound, the concentration for total growth inhibition (TGI) in the experiment with SR leukemia is 47.6 µM; in the experiment with TK-10 renal, 82.7 µM.
For the compound `CN(C)c1ccc2cc3c(cc2c1)Oc1ccccc1N3.[Cl][Zn][Cl]`, the GI50 in the experiment with IGROV1 ovarian is 12.8 µM; with NCI-H522 lung, 1.94 µM; in the experiment on NCI/ADR-RES ovarian it was 16.8 µM; with OVCAR-3 ovarian it was 1.5 µM; in the experiment with OVCAR-8 ovarian, 5.64 µM; in the experiment with SK-OV-3 ovarian, 17 µM. Moreover, the figures for the GI50 with SR leukemia and with TK-10 renal were 3.15 µM and 6.2 µM, respectively. The TGI is 33.8 µM in the experiment with IGROV1 ovarian; 4.94 µM in the experiment with NCI-H522 lung; 83.3 µM with NCI/ADR-RES ovarian; 3 µM in the experiment with OVCAR-3 ovarian; above 100 µM in the experiment with OVCAR-8 ovarian; 33.3 µM with SK-OV-3 ovarian. Also, the TGI was above 100 µM with SR leukemia and 16.5 µM with TK-10 renal.
With `CCc1nc(N)nc(N)c1-c1ccc(N(C)Cc2ccccc2)c([N+](=O)[O-])c1`, the TGI amounted to 25.8 µM in the experiment on IGROV1 ovarian; 14.6 µM with NCI-H522 lung; 21.4 µM in the experiment with NCI/ADR-RES ovarian; 22.6 µM with OVCAR-3 ovarian; 30 µM with OVCAR-8 ovarian; 33.6 µM in the experiment on SK-OV-3 ovarian. In addition, the total growth inhibition concentration (TGI) was found to be 4.16 µM with SR leukemia and 34.2 µM with TK-10 renal.

These data come from PubChem BioAssay (NCI).
